Assay results from US10821080B2, “Microencapsulation process with solvent and salt” (Evonik Corporation, priority 2008, dated 2020).

Experiment: Equilibrium/saturation study of solvent solubility in PVA solutions with increasing salt concentration
Format: physicochemical
Method: An equilibrium/saturation study was performed to measure solvent solubilities in PVA solutions in increasing salt concentration levels. The saturation solubility in weight % of ethyl acetate and methylene chloride were individually tested with varying sodium chloride weight % in a 2% PVA aqueous solution. […] At about 15 weight % sodium chloride contention, the PVA began to salt out of the solution.

saturation solubility in weight % as the sodium chloride content was increased: decreased
SMILES: CCOC(C)=O [ethyl acetate]
